Assay type in all cases: binding, human
In test [1] the test system is cofactor-independent aPE IgG. Briefly: ELISA of synthetic PE compositions, cofactor-independent aPE IgG. On the procedure: FIG. 15. Head-to-head comparison between egg PE and synthetic 20:4 PE on the ELISA for cofactor-independent aPE IgG reactivity. The 96 well plate was coated with 1 mg of indicated PE per well, OD405 was measured after ELISA and the relative OD value was determined by subtracting the OD value of normal human serum from the patient sample. […] A total 14 patient serums were tested.
(In an ELISA, binding on a coated surface is turned into a signal by an enzyme label.)

For test [2], the system named is cofactor-independent aPE IgM. Put plainly: ELISA of synthetic PE compositions, cofactor-independent aPE IgM. The following applies: FIG. 9. The method, then:
FIGS. 12A-B. Determination of PE coating amount and its impact on ELISA. A, B. determination of PE coating Amount. The indicated amount of PE was coated on 96 well plate and Elisa was performed. The relative OD405 value was deducted the normal serum value. The error bar represents SEM, n=3. A for egg PE, B for 20% 18:0 PE, 13.3% 18:1 PE, 39.9% 20:4 PE, and 26.6% 22:6 PE.
FIG. 13. A head-to-head comparison on the ELISA performance between egg PE and the synthetic formulation. The ELISA place was coated with 0.5 μg of egg PE or the kit formulation (20% 18:0 PE, 13.3% 18:1 PE, 39.9% 20:4 PE, and 26.6% 22:6 PE). OD405 was measured after ELISA and the relative OD value was subtracted from the normal human serum value. The net value was the mean of triplicates. A total 11 patient serum samples were tested for experiments.
Egg PE is currently the most widely used source of PE in ELISA tests for aPE.

The subject of test [3] is cofactor-independent IgG aPE. Put plainly: ELISA with affinity-purified total IgG, cofactor-independent sample. The following applies: FIG. 18, total IgG 200 μg/ml. On the procedure: (§1) FIG. 18. aPE reactivity to egg PE, 20:4 PE and 18:1 PE using affinity-purified total IgG from a cofactor-dependent and a cofactor-independent IgG aPE patient plasma. For each ELISA test, the total IgG was used at a concentration of 200 μg/ml. […] The values are means of triplicates.
(§2) To minimize uncertainties caused by potential confounding factors in the serum and variations in immunoglobulin contents, the total IgG was isolated from representative aPE patient serum samples and was used to validate ELISA assays.
(§3) Microplates were coated using Egg PE, 20:4 PE or 18:1 PE for IgG aPE ELISA for normal human serum, a representative cofactor-dependent and cofactor-independent patient serum.

The test system of test [4] is cofactor-dependent IgG aPE. Briefly: ELISA with affinity-purified total IgG, cofactor-dependent samples. On the procedure: as §1
The values are means of triplicates.
as §2, §3

Another test deals with cofactor-independent aPE. Briefly: aPE ELISA, cofactor-independent patient serum (Example 1). The following applies: representative patient serum, antigen 1 to 400 μg/ml, FIG. 1. On the procedure: For aPE ELISA assays (ref. 14; herein incorporated by reference in its entirety), microtiter plates (PolySorp, Thermo Fisher, Pittsburgh, USA) were coated with 50 μl of a solution containing various concentrations of egg yolk PE or equal molar amounts of DOPE in ethanol:chloroform (4:1) and dried by evaporation at room temperature (RT) in an extractor shielded from light. Each well was blocked for two hours at RT with 10% BSA in PBS followed by 50 μl of patient serum diluted 1/100 in PBS for one hour at RT. aPEs were assessed by using alkaline phosphatase conjugated polyclonal antibody (Ab) against either human IgG or IgM. The plates were washed three times with PBS after blocking, serum and conjugate incubations. After color development with paranitrophenyl phosphate as substrate, optical density at 405 nm was measured. OD values of pooled normal serum control were subtracted from those of patient serum samples measured with the same PE concentration.
In order to determine the optimal concentration of antigen in aPE ELISA, wells were coated with a series of concentrations of egg yolk PE ranging from 1 to 400 μg/ml aPEs or normal control serum were assessed with alkaline phosphatase conjugated polyclonal Ab to either IgG or IgM. […]

Each structure is given as a SMILES string. Entries after “also recorded” stand apart in the source; their conditions may differ.

`CCCCC/C=C\C/C=C\C/C=C\C/C=C\CCCC(=O)OC[C@H](COP(=O)(O)OCCN)OC(=O)CCC/C=C\C/C=C\C/C=C\C/C=C\CCCCC` [20:4 PE, arachidonic PE]: the “OD value relative to egg PE” value in test [1] (FIG. 14, representative patient serum sample, 1 mg PE per well) is recorded as around 14 folds. Also, the “relative ELISA performance against egg PE” value in test [1] (FIG. 14, representative patient serum sample, 1 mg PE per well, n=3) is listed as “highest OD value”. For the same molecule, the “head-to-head ELISA performance versus egg PE” value in test [1] (FIG. 15, 14 patient serum samples, P=0.012) was “out-performed egg PE significantly”. The “improvement of aPE reactivity versus egg PE” value in test [1] (FIG. 15, some samples) is at least 500%. Also, the “ELISA performance compared with egg PE” value in test [2] (0.5 mg PE per well, relative OD405 normalized with egg PE, serum from patient J083006H, n=3) is listed as “out-perform egg PE”. Also, in test [2] (unsaturated versus saturated, longer versus shorter fatty acid tails), the “ELISA performance compared with other single PE species” value is reported as “better performance”. Moreover, the “aPE reactivity of purified total IgG” value in test [3] is on record as “significant reactivity; also recorded: prefer”; in test [4] (FIG. 18, cofactor-dependent sample, total IgG 200 μg/ml) it was “not”; in test [4] (FIG. 19, two other cofactor-dependent aPE samples), “not”.
Regarding `CCCCCCCC/C=C\CCCCCCCC(=O)OC[C@H](COP(=O)(O)OCCN)OC(=O)CCCCCCC/C=C\CCCCCCCC` [DOPE, dioleoyl PE], in the test with cofactor-independent aPE, the “antigen concentration at which aPE reactivities peaked” value was “around 5 μg/ml”.

For the origin of these results see patent US10466259B2, “Synthetic antigen compositions for detecting anti-phosphatidylethanolamine antibodies” (Northwestern Univeristy, priority 2015, dated 2019).
